Measured values: patent US20090105270A1, “Kinase inhibition and anticancer therapy” (priority 2007, published 2009)

Legend:
Hck(h) = target: T1, Hck(h) (Homo sapiens, UniProt P08631); test: Upstate kinase activity inhibition assay Hck(h); type: biochemical; conditions: 40 min; read-out: percentage of enzyme activity that remains
T1 construct: purchased Upstate (KinaseProfiler service)

EphB4(h) = target: T2, EphB4(h) (Homo sapiens, UniProt P54760); test: Upstate kinase activity inhibition assay EphB4(h); type: biochemical; conditions: 40 min; read-out: percentage of enzyme activity that remains
T2 construct: purchased Upstate (KinaseProfiler service)

PKG1α(h) = target: T3, PKG1α(h) (Homo sapiens, UniProt Q13976); test: Upstate kinase activity inhibition assay PKG1α(h); type: biochemical; conditions: 40 min; read-out: percentage of enzyme activity that remains
T3 construct: purchased Upstate (KinaseProfiler service)

Ret(h) = target: T4, Ret(h) (Homo sapiens, UniProt P07949); test: Upstate kinase activity inhibition assay Ret(h); type: biochemical; conditions: 40 min; read-out: percentage of enzyme activity that remains
T4 construct: purchased Upstate (KinaseProfiler service)

PKBα(h) = target: T5, PKBα(h) (Homo sapiens, UniProt P31749); test: Upstate kinase activity inhibition assay PKBα(h); type: biochemical; conditions: 40 min; read-out: percentage of enzyme activity that remains
T5 construct: purchased Upstate (KinaseProfiler service)

Pim-2(h) = target: T6, Pim-2(h) (Homo sapiens, UniProt Q9P1W9); test: Upstate kinase activity inhibition assay Pim-2(h); type: biochemical; conditions: 40 min; read-out: percentage of enzyme activity that remains
T6 construct: purchased Upstate (KinaseProfiler service)

PKCη(h) = target: T7, PKCη(h) (Homo sapiens, UniProt P24723); test: Upstate kinase activity inhibition assay PKCη(h); type: biochemical; conditions: 40 min; read-out: percentage of enzyme activity that remains
T7 construct: purchased Upstate (KinaseProfiler service)

Met(h) = Met(h) (Homo sapiens, UniProt P08581); test: Upstate kinase activity inhibition assay Met(h)
Ros(h) = target: T8, Ros(h) (Homo sapiens, UniProt P08922); test: Upstate kinase activity inhibition assay Ros(h); type: biochemical; conditions: 40 min; read-out: percentage of enzyme activity that remains
T8 construct: purchased Upstate (KinaseProfiler service)

PTK5(h) = target: T9, PTK5(h) (Homo sapiens, UniProt P42685); test: Upstate kinase activity inhibition assay PTK5(h); type: biochemical; conditions: 40 min; read-out: percentage of enzyme activity that remains
T9 construct: purchased Upstate (KinaseProfiler service)

HIPK2(h) = HIPK2(h) (Homo sapiens, UniProt Q9H2X6); test: Upstate kinase activity inhibition assay HIPK2(h); conditions: 40 min, read-out: percentage of enzyme activity that remains
MINK(h) = target: T10, MINK(h) (Homo sapiens, UniProt Q8N4C8); test: Upstate kinase activity inhibition assay MINK(h); type: biochemical; conditions: 40 min; read-out: percentage of enzyme activity that remains
T10 construct: purchased Upstate (KinaseProfiler service)

STK33(h) = STK33(h) (Homo sapiens, UniProt Q9BYT3); test: Upstate kinase activity inhibition assay STK33(h); conditions: 40 min, read-out: percentage of enzyme activity that remains
BRK(h) = BRK(h) (Homo sapiens, UniProt Q13882); test: Upstate kinase activity inhibition assay BRK(h); conditions: 40 min, read-out: percentage of enzyme activity that remains
SRPK2(h) = SRPK2(h) (Homo sapiens, UniProt P78362); test: Upstate kinase activity inhibition assay SRPK2(h); conditions: 40 min, read-out: percentage of enzyme activity that remains
PRAK(h) = PRAK(h) (Homo sapiens, UniProt Q8IW41); test: Upstate kinase activity inhibition assay PRAK(h); conditions: 40 min, read-out: percentage of enzyme activity that remains
CDK2/cyclinE(h) = target: T11, CDK2/cyclinE(h) (Homo sapiens, UniProt P24941); test: Upstate kinase activity inhibition assay CDK2/cyclinE(h); type: biochemical; conditions: 4 μM Compound E
T11 construct: purchased Upstate (KinaseProfiler service)

NEK11(h) = NEK11(h) (Homo sapiens, UniProt Q8NG66); test: Upstate kinase activity inhibition assay NEK11(h); conditions: 40 min, read-out: percentage of enzyme activity that remains
LOK(h) = LOK(h) (Homo sapiens, UniProt O94804); test: Upstate kinase activity inhibition assay LOK(h)
ROCK-I(h) = ROCK-I(h) (Homo sapiens, UniProt Q13464); test: Upstate kinase activity inhibition assay ROCK-I(h); conditions: 40 min, read-out: percentage of enzyme activity that remains
Flt4(h) = Flt4(h) (Homo sapiens, UniProt P35916); test: Upstate kinase activity inhibition assay Flt4(h); conditions: 40 min, read-out: percentage of enzyme activity that remains
SGK3(h) = SGK3(h) (Homo sapiens, UniProt Q96BR1); test: Upstate kinase activity inhibition assay SGK3(h); conditions: 40 min, read-out: percentage of enzyme activity that remains
PKG1β(h) = target: T12, PKG1β(h) (Homo sapiens, UniProt Q13976); test: Upstate kinase activity inhibition assay PKG1β(h); type: biochemical; conditions: 40 min; read-out: percentage of enzyme activity that remains
T12 construct: purchased Upstate (KinaseProfiler service)

PDGFRα(h) = PDGFRα(h) (Homo sapiens, UniProt P16234); test: Upstate kinase activity inhibition assay PDGFRα(h); conditions: 40 min, read-out: percentage of enzyme activity that remains
Rsk1(h) = target: T13, Rsk1(h) (Homo sapiens, UniProt Q15418); test: Upstate kinase activity inhibition assay Rsk1(h); type: biochemical; conditions: 40 min; read-out: percentage of enzyme activity that remains
T13 construct: purchased Upstate (KinaseProfiler service)

Rse(h) = target: T14, Rse(h) (Homo sapiens, UniProt Q06418); test: Upstate kinase activity inhibition assay Rse(h); type: biochemical; conditions: 40 min; read-out: percentage of enzyme activity that remains
T14 construct: purchased Upstate (KinaseProfiler service)

MST2(h) = MST2(h) (Homo sapiens, UniProt Q13188); test: Upstate kinase activity inhibition assay MST2(h); conditions: 40 min, read-out: percentage of enzyme activity that remains
PAK5(h) = PAK5(h) (Homo sapiens, UniProt Q9P286); test: Upstate kinase activity inhibition assay PAK5(h); conditions: 40 min, read-out: percentage of enzyme activity that remains
Yes(h) = Yes(h) (Homo sapiens, UniProt P07947); test: Upstate kinase activity inhibition assay Yes(h); conditions: 40 min, read-out: percentage of enzyme activity that remains
TrkA(h) = TrkA(h) (Homo sapiens, UniProt P04629); test: Upstate kinase activity inhibition assay TrkA(h); conditions: 40 min, read-out: percentage of enzyme activity that remains
Fyn(h) = target: T15, Fyn(h) (Homo sapiens, UniProt P06241); test: Upstate kinase activity inhibition assay Fyn(h); type: biochemical; conditions: 40 min; read-out: percentage of enzyme activity that remains
T15 construct: purchased Upstate (KinaseProfiler service)

Sequence of Met(h) (P08581 25-1390): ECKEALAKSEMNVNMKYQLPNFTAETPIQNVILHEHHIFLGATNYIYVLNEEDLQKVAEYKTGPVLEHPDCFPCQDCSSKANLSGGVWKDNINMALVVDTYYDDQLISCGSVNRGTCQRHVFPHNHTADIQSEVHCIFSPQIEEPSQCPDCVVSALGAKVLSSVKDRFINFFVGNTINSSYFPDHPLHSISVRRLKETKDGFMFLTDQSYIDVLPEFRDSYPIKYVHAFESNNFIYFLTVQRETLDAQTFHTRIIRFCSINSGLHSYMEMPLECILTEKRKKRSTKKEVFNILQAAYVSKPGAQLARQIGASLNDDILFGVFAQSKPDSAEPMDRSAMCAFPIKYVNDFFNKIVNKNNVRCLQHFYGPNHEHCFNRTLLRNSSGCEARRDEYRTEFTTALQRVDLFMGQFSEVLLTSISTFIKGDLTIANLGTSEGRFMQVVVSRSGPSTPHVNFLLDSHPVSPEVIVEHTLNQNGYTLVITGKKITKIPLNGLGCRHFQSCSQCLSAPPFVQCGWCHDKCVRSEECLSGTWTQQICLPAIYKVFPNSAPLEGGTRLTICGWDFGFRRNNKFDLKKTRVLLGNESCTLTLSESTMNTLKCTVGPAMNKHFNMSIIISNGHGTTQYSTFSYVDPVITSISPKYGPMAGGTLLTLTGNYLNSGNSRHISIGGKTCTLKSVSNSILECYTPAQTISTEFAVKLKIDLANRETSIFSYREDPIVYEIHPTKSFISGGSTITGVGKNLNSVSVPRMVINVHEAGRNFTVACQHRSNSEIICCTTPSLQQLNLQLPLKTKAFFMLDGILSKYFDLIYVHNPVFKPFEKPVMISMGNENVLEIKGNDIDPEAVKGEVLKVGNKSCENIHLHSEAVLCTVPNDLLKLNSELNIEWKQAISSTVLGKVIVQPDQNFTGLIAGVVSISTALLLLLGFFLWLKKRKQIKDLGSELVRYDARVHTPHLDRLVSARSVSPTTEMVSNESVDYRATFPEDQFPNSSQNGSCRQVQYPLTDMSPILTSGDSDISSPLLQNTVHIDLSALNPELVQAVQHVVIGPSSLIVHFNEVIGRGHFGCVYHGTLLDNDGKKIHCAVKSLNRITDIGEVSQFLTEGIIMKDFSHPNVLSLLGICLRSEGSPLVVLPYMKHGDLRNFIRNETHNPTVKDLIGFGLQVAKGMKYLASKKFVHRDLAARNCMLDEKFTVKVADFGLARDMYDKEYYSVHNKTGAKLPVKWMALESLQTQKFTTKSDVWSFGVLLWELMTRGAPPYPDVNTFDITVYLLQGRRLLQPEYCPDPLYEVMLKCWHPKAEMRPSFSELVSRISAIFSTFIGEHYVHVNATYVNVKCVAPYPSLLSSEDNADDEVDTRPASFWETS
Sequence of STK33(h) (Q9BYT3 whole entry): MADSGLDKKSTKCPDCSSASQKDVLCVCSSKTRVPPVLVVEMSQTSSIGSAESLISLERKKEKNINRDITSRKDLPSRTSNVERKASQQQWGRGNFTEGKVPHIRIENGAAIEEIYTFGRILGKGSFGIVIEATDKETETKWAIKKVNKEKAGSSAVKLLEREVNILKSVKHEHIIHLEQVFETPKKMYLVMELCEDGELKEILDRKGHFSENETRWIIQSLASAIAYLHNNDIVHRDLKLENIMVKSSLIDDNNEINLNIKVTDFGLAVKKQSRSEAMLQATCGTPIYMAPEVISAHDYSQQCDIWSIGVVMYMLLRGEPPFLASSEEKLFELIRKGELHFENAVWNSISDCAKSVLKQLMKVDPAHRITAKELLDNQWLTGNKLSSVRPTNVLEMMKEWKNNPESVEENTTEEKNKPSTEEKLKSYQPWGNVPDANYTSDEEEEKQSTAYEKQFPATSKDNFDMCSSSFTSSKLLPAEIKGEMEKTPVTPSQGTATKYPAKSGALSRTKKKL
Sequence of PAK5(h) (Q9P286 whole entry): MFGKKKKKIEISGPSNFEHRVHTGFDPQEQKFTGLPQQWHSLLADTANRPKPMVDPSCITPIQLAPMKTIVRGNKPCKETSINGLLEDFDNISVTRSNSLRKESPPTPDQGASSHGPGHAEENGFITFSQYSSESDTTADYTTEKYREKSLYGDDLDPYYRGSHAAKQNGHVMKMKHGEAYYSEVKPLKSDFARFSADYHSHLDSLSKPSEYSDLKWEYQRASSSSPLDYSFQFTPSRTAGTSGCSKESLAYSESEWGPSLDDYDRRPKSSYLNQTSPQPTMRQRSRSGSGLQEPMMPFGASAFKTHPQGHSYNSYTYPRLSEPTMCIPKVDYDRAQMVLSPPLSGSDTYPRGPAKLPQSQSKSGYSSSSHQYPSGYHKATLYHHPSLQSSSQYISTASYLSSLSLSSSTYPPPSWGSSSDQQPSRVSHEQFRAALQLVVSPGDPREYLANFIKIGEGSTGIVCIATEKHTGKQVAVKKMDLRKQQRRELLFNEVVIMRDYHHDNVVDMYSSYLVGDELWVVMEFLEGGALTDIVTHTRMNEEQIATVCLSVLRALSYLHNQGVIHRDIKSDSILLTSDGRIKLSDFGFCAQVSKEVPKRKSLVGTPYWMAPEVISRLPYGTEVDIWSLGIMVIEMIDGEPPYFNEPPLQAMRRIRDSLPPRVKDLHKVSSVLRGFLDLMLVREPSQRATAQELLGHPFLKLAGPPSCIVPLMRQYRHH
T12 sequence (Q13976 1-686 isoform Q13976-2): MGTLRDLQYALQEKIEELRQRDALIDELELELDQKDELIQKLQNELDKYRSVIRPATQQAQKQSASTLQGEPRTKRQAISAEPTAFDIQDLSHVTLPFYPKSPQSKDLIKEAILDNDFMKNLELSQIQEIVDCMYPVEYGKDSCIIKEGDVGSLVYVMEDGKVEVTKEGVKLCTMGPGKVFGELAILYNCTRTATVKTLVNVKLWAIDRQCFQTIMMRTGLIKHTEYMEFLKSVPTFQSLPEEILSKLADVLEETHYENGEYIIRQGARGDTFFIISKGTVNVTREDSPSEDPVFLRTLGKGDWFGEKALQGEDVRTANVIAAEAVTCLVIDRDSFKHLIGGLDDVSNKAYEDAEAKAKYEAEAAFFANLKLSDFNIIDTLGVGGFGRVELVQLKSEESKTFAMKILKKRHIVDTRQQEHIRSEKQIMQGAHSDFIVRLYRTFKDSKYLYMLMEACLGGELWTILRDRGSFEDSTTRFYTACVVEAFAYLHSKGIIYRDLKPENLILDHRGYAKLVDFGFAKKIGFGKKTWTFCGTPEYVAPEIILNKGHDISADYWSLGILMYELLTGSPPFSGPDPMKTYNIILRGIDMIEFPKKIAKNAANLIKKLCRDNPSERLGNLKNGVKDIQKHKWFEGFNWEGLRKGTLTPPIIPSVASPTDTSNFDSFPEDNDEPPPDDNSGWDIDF
Sequence of ROCK-I(h) (Q13464 whole entry): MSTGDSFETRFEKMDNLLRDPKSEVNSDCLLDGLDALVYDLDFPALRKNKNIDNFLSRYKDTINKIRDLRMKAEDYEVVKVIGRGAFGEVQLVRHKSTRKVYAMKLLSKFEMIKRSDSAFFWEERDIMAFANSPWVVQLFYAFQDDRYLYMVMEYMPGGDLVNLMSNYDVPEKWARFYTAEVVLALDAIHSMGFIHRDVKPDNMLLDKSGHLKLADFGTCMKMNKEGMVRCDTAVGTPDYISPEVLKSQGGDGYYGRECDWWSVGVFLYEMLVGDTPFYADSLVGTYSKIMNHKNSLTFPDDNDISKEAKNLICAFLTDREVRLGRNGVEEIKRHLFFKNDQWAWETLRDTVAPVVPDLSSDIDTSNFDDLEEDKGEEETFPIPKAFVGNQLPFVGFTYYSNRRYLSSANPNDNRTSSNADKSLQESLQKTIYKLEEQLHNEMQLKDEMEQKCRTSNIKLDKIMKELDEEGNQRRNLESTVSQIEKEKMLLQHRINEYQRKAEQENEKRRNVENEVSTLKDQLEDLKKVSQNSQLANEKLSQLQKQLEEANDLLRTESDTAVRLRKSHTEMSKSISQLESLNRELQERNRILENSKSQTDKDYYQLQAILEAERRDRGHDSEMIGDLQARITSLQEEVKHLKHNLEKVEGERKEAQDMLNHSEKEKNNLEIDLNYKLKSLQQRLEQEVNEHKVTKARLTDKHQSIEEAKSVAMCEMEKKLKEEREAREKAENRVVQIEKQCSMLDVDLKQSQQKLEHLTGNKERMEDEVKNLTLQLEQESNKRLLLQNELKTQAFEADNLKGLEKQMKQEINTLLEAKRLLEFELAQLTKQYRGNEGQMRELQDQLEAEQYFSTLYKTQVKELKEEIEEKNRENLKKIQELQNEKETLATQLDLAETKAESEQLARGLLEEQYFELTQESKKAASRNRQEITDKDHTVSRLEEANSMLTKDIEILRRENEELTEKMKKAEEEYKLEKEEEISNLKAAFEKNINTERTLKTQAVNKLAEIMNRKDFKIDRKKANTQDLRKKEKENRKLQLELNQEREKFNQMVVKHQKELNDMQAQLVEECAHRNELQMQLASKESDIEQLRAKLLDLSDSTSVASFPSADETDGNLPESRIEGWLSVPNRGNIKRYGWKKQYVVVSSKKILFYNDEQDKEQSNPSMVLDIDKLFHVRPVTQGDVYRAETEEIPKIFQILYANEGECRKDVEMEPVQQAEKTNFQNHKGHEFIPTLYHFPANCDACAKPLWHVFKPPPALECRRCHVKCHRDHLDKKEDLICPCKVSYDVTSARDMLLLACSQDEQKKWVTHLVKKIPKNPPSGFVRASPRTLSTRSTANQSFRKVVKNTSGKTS
Sequence of BRK(h) (Q13882 whole entry): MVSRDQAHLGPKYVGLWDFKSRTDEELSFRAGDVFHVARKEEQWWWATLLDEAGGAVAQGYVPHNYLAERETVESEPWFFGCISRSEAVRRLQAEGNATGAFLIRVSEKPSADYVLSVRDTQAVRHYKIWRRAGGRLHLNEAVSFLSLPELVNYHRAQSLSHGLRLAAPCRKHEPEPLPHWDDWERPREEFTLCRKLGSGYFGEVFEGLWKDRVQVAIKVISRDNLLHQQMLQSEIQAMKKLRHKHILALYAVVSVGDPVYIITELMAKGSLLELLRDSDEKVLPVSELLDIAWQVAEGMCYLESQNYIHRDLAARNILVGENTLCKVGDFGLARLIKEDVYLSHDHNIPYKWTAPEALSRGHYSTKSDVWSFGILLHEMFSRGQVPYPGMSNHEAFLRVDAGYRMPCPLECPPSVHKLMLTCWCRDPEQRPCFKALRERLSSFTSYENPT

## Cc1cc(Nc2cc(N3CCN(C)CC3)nc(Sc3ccc(NC(=O)C4CC4)cc3)n2)n[nH]1 [Compound E, Cyclopropane carboxylic acid {4-[4-(4-methyl-piperazin-1-yl)-6-(5-methyl-2H-pyrazol-3-ylamino)-pyrimidin-2-ylsulphanyl]-phenyl}-amide]
Hck(h)
  remaining activity at 0.2 µM: 98%
  remaining activity at 4 µM: 45%
EphB4(h)
  remaining activity at 0.2 µM: 91%
  remaining activity at 4 µM: 11%
PKG1α(h)
  remaining activity at 4 µM: 89%
Ret(h)
  remaining activity at 0.2 µM: 34%
  remaining activity at 4 µM: 2%
PKBα(h)
  remaining activity at 0.2 µM: 110%
  remaining activity at 4 µM: 110%
Pim-2(h)
  remaining activity at 0.2 µM: 110%
  remaining activity at 4 µM: 124%
PKCη(h)
  remaining activity at 0.2 µM: 98%
  remaining activity at 4 µM: 100%
Met(h); 0.2 μM Compound E
  percentage of enzyme activity that remains: 105%
Met(h); 4 μM Compound E
  percentage of enzyme activity that remains: 50%
Ros(h)
  remaining activity at 4 µM: 80%
PTK5(h)
  remaining activity at 0.2 µM: 97%
  remaining activity at 4 µM: 54%
HIPK2(h)
  remaining activity at 0.2 µM: 107%
  remaining activity at 4 µM: 110%
MINK(h)
  remaining activity at 0.2 µM: 103%
  remaining activity at 4 µM: 82%
STK33(h)
  remaining activity at 0.2 µM: 112%
  remaining activity at 4 µM: 110%
BRK(h)
  remaining activity at 0.2 µM: 102%
  remaining activity at 4 µM: 83%
SRPK2(h)
  remaining activity at 0.2 µM: 122%
  remaining activity at 4 µM: 109%
PRAK(h)
  remaining activity at 0.2 µM: 114%
  remaining activity at 4 µM: 109%
CDK2/cyclinE(h)
  percentage of enzyme activity that remains: 125%
NEK11(h)
  remaining activity at 0.2 µM: 106%
  remaining activity at 4 µM: 106%
LOK(h); 0.2 μM Compound E
  percentage of enzyme activity that remains: 92%
LOK(h); 4 μM Compound E
  percentage of enzyme activity that remains: 37%
ROCK-I(h)
  remaining activity at 0.2 µM: 99%
  remaining activity at 4 µM: 91%
Flt4(h)
  remaining activity at 4 µM: 10%
SGK3(h)
  remaining activity at 0.2 µM: 103%
  remaining activity at 4 µM: 87%
PKG1β(h)
  remaining activity at 0.2 µM: 87%
  remaining activity at 4 µM: 87%
PDGFRα(h)
  remaining activity at 0.2 µM: 87%
Rsk1(h)
  remaining activity at 4 µM: 89%
Rse(h)
  remaining activity at 0.2 µM: 94%
  remaining activity at 4 µM: 77%
MST2(h)
  remaining activity at 0.2 µM: 92%
  remaining activity at 4 µM: 74%
PAK5(h)
  remaining activity at 0.2 µM: 93%
  remaining activity at 4 µM: 68%
Yes(h)
  remaining activity at 0.2 µM: 39%
  remaining activity at 4 µM: 2%
TrkA(h)
  remaining activity at 0.2 µM: 98%
  remaining activity at 4 µM: 8%
Fyn(h)
  remaining activity at 4 µM: 4%
